In PubChem BioAssay (NCI) one finds GI50 and TGI data, which are given here for 41 molecules.

Values joined by “and” are separate entries in the source; they are usually repeats but may differ in a detail not shown here. Identical values can stand only once.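 Five concentrations, 48 hours, 96-well plates. Abbreviation: GI50, concentration required for 50% inhibition of growth. Definition used: TGI = concentration required for complete inhibition of growth.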

The subject of this assay is MDA-MB-468 breast. Description: NCI anticancer screen, dose series, 48 h.
Regarding `Cc1ccc2sc3c(NCCCN)nc4ccccc4c3c(=O)c2c1`, the GI50 is 1.67 µM and the TGI stood at 3.36 µM.

For the molecule `CC(C)[C@@H](C(=O)O[C@@H]1/C=C/C(=O)O[C@@H](C)CCC/C=C/[C@@H]2C[C@H](O)C[C@H]21)N(C)C`, the GI50 is 1.53 µM and the TGI came to 6.18 µM.

Regarding `CCOC(=O)N1CCC(N=C2CSc3nnc(-c4cc(C(F)(F)F)cc(C(F)(F)F)c4)n3N2)CC1`, the GI50 is 1.74 µM and the TGI is 4.67 µM.

In the case of `Clc1cnc(Nc2ccc(OCCN3CCCC3)cc2)nc1NCc1ccco1`, the GI50 was 2.37 µM and the TGI turned out to be 5.1 µM.

With `CCC[CH2][Sn]1([CH2]CCC)[O]C(=O)c2cccc([N+](=O)[O-])c2C(=O)[O]1`, the GI50 is 0.153 µM and the TGI is 0.449 µM.

On to `Cc1nnc(N/N=C/c2ccc([N+](=O)[O-])o2)[nH]c1=O`, for which the GI50 was 0.749 µM and the TGI was 12.2 µM.

Take `COc1cc2ncnc(Oc3ccc(NC(=O)Nc4ccc(CN5CCOCC5)c(C(F)(F)F)c4)c4ccccc34)c2cc1OC`: the GI50 was 0.249 µM and the TGI was 1.85 µM.

Regarding `CCCCCCCCN(CCCCCCCC)CC(O)c1cc(-c2ccccc2)nc2ccc(OC)cc12` (configuration not stated), the GI50 is 39.2 µM and the TGI was greater than 100 µM.

Turning to `O=C(Nc1nc2c(C(F)(F)F)cccc2s1)c1cc(Cl)ccc1O`, the GI50 is 0.226 µM and the TGI came to 0.749 µM.

On to `O=C1C2=C(C(=O)c3ccccc31)C(O)(S(=O)(=O)O)C(O)(S(=O)(=O)O)C1N=CC=CC21` (configuration not stated), for which the GI50 is 10.6 µM and 4.29 µM; the TGI is 37.5 µM and 21.2 µM.

In the case of `COc1c(C(N)=O)cc(-c2ccc(Cl)cc2)cc1-c1ccc(S(N)(=O)=O)cc1`, the GI50 is 4.33 µM and the TGI was 11.1 µM.

With `CCN(CC)CCOc1nc2ccccc2c2c1-c1ccc(OC)cc1C2=O`, the GI50 was 0.857 µM and the TGI was determined as 3.26 µM.

As for `Oc1c(C(c2ccc(F)cc2)N2CCCCC2)ccc2cncnc12` (configuration not stated), the GI50 is 0.494 µM and the TGI worked out at 8.47 µM.

As to `C=CCc1c(O)c(C(=O)/C=C/c2ccc(Cl)cc2)c(OC)c2ccoc12`, the GI50 is 2.27 µM and the TGI turned out to be 5.84 µM.

On to `CN1C(=O)N(C)C2C1NC(=S)N2/N=C/C=C/c1ccccc1[N+](=O)[O-]` (configuration not stated), for which the GI50 was 0.431 µM and the TGI was 88.2 µM.

Consider `Cn1nc(C(F)(F)F)cc1-c1cc(Cl)c(OCc2ccc(Cl)cc2)c(-c2ccc(Cl)c(C(F)(F)F)c2)c1O`, for which the GI50 is 0.833 µM and the TGI is 4.97 µM.

Regarding `CCOP(=O)(OCC)/C(=C/n1c(=S)[nH]c2ccccc21)C(=O)OC`, the GI50 is greater than 100 µM and the TGI is greater than 100 µM.

In the case of `Cc1[nH]nc(C(F)(F)F)c1Cc1sc2c(c1C(=O)N1C[C@](C)(O)CO1)c(=O)n(C)c(=O)n2C(C)C`, the GI50 is greater than 100 µM and the TGI is greater than 100 µM.

`Cc1c(C(=O)Nc2ccc(N3C[C@@H](C)O[C@@H](C)C3)nc2)cccc1-c1ccc(OC(F)(F)F)cc1`: the GI50 is 3.11 µM and 5.62 µM; the TGI is 19.2 µM and 31.7 µM.

`COc1cc(OC)c(/C=C/C(=O)c2c(OC)cc(OC)cc2OC)c(OC)c1`: the GI50 is 0.7 µM and the TGI amounted to 4.55 µM.

In the case of `O=C(Nc1cccc([N+](=O)[O-])c1)c1cccc(C(=O)Nc2cccc([N+](=O)[O-])c2)c1`, the GI50 is greater than 100 µM and the TGI was greater than 100 µM.

In the case of `N#C/C(=C\c1ccc[nH]1)c1cc(-c2ccc(Cl)cc2)nn1-c1ccccc1`, the GI50 was 0.269 µM and the TGI turned out to be 2.23 µM.

Take `C[C@@H]1CC[C@@H]2[C@@H]1[C@H](OC(=O)/C=C/C1CCCCC1)[C@]1(C3CCCCC3)C[C@@H](OC(=O)CO)[C@@]2(C)O1`: the GI50 was 13.4 µM and the TGI stood at 27.5 µM.

`Cc1cc(OCc2ccc(C(F)(F)F)cc2)c2c(c1)C(=O)C=C(NCCN1CCCC1)C2=O`: the GI50 was 2 µM and the TGI came out at 4.55 µM.

On to `CN1CCN(Cc2ccc(NC(=O)c3cncc(C#Cc4ccc(N)nc4)c3)cc2C(F)(F)F)CC1`, for which the GI50 was 1.01 µM and the TGI was found to be 4.3 µM.

On to `CCOC(=O)C1=C(Nc2ccc(OC)cc2)C(N)=NC1=N`, for which the GI50 is 0.474 µM and the TGI is greater than 100 µM.

`Nc1nc(-c2ccc3c(c2)/C(=C\c2cc(Br)c(O)c(Br)c2)C(=O)N3)cs1`: the GI50 is 6.5 µM and the TGI is greater than 22.8 µM.

With `CCC(=O)NC1=C(Cl)C(=O)C(NC(=O)CC)=C(Cl)C1=O`, the GI50 is 1.72 µM and the TGI stood at 3.66 µM.

On to `CC(C)(C)NCC(O)c1ccccc1Cl` (configuration not stated), for which the GI50 was greater than 100 µM and the TGI was greater than 100 µM.

On to `COc1nn(C)cc1Nc1nccc(-c2c[nH]c3c(NC(=O)[C@@H](C)N4CCN(C)CC4)cccc23)n1`, for which the GI50 was 25 µM and the TGI stood at 67.8 µM.

Turning to `CC1Cc2c(Cl)ncnc2N(C)c2ccccc21` (configuration not stated), the GI50 was 1.6 µM and the TGI stood at 6.81 µM.

Turning to `Cc1ccsc1C(NC(=O)c1ccccc1)c1cc(Cl)c2cccnc2c1O` (configuration not stated), the GI50 is 0.602 µM and the TGI is 5.63 µM.

In the case of `CCN1CCN(c2ccc(NC(=O)Nc3nc4ccc(-c5ccccc5OC)cc4s3)cc2)CC1`, the GI50 is 2.17 µM and the TGI was found to be 4.03 µM.

Turning to `COC(=O)Nc1nc2ccc(C(=O)c3cccc(I)c3)cc2[nH]1`, the GI50 is 0.0598 µM and the TGI turned out to be 2.14 µM.

Regarding `c1ccc2c(N=NSc3ncnc4nc[nH]c34)c3ccccc3nc2c1`, the GI50 is 0.549 µM and the TGI turned out to be 2.34 µM.

`COc1ccc2c3ccnc(C(F)(F)F)c3n(CCCCN)c2c1`: the GI50 was 3.22 µM and the TGI was 13.4 µM.

Turning to `NC(=Nc1ccccc1)N/N=C/c1c[nH]c2ccccc12`, the GI50 was 0.501 µM and the TGI was 1.87 µM.

As for `CC1=CC2(C)/C=C(C)/C=C\CC(O)/C=C3/C=CC(=C4C(=O)OC2(CC1C)C4=O)OC3` (configuration not stated), the GI50 was 1.18 µM and the TGI worked out at 2.85 µM.

Consider `O=C1/C=C/[C@@H](O)[C@@H]2C[C@@H](O)C[C@H]2/C=C/CCC[C@H](CCO)O1`, for which the GI50 is 0.0239 µM and the TGI worked out at 0.0757 µM.

As to `COc1ccc(C(=O)/C=C/c2ccc(OCc3cccc(C(F)(F)F)c3)c(OC)c2)cc1OC`, the GI50 is 107 µM and the TGI is greater than 1000 µM.

As for `CCN1CCN(C(=O)[C@]23CC[C@@H](C)[C@H](C)[C@@H]2C2=CC[C@@H]4[C@@]5(C)CCC(=O)C(C)(C)[C@@H]5CC[C@@]4(C)[C@]2(C)CC3)CC1`, the GI50 is 0.931 µM and the TGI was 2.32 µM.
